Source: PMC7354438 (Viruses, 2020)

Assays:
[1] = tested on: hCoV-19/Norway/Trondheim-E9/2020; test: Drug test: viability of SARS-CoV-2-infected Vero-E6 cells (CellTiter-Glo); assay type: cell-based; set-up: AUC: unit not given beside the values
[2] = Cytotoxicity in mock-infected Vero-E6 cells (CellTiter-Glo); details: African green monkey
[3] = tested on: viral genomic and sub-genomic RNAs; test: Gene expression analysis (RNA sequencing) of drug-treated infected Vero-E6 cells; assay type: cell-based, SARS-CoV-2; details: moi 0.1, 24 h, 3 M nelfinavir, 5 M amodiaquine or both
[4] = Drug combination test, mock-infected Vero-E6 cells (CTG); assay type: cell-based; details: African green monkey, mock-infected Vero-E6 cells (control), read-out: Relative viability (%); for viability at 72 h, 0.008 uM: single drug 0.008 uM (other drug 0); for viability at 72 h, 0.04 uM: single drug 0.04 uM (other drug 0); for viability at 72 h, 0.2 uM: single drug 0.2 uM (other drug 0); for viability at 72 h, 1 uM: single drug 1.0 uM (other drug 0); for viability at 72 h, 5 uM: single drug 5.0 uM (other drug 0)
[5] = Severe acute respiratory syndrome coronavirus 2, Vero C1008, infected Vero-E6 cells, moi 0.1, 72 h, Mean ± SD, n = 3
[6] = Severe acute respiratory syndrome coronavirus 2, Vero C1008, 72 h

With `CCN(CC)Cc1cc(Nc2ccnc3cc(Cl)ccc23)ccc1O` [Amodiaquine] the EC50 [1, 5] was 4200 ± 200 nM, the CC50 at 72 h ([2]; mock-infected Vero-E6 cells) was greater than 30000 nM and the “transcription of viral genomic and sub-genomic RNAs” value [3] was “lowered the transcription of viral genomic and sub-genomic RNAs”. For the same compound, the viability at 72 h, 0.008 uM [4] was 89.1%, the viability at 72 h, 0.04 uM [4] was 91.8% and the viability at 72 h, 0.2 uM [4] was 76.4%. The viability at 72 h, 1 uM [4] was 76.6% and the viability at 72 h, 5 uM [4] was 71.5%.

`CC[C@H]1CN2CCc3cc(OC)c(OC)cc3[C@@H]2C[C@@H]1C[C@H]1NCCc2cc(OC)c(OC)cc21` [Emetine] showed an EC50 [1, 6] of less than 10 nM and a CC50 at 72 h [2] of 700 ± 400 nM.

`COC(=O)C[C@](O)(CCCC(C)(C)O)C(=O)O[C@@H]1C(OC)=C[C@]23CCCN2CCc2cc4c(cc2[C@H]13)OCO4` [Homoharringtonine] gave an EC50 [1, 5] of 30 ± 20 nM and a CC50 at 72 h ([2]; mock-infected Vero-E6 cells) of 360 ± 600 nM.

For `Cc1c(O)cccc1C(=O)N[C@@H](CSc1ccccc1)[C@H](O)CN1C[C@H]2CCCC[C@H]2C[C@H]1C(=O)NC(C)(C)C` [Nelfinavir], the EC50 [1, 5] was 2100 ± 600 nM, the CC50 at 72 h ([2]; mock-infected Vero-E6 cells) was 9700 ± 400 nM and the viability at 72 h, 0.008 uM [4] was 100%. The viability at 72 h, 0.04 uM [4] was 100%, the viability at 72 h, 0.2 uM [4] was 96.5% and the viability at 72 h, 1 uM [4] was 90.2%. For the same compound, the viability at 72 h, 5 uM [4] was 80.7%.

With `COC1=CC(c2cc3ccccc3[nH]2)=N/C1=C\c1[nH]c(C)cc1C` [Obatoclax (Mesylate), Obatoclax] the EC50 [1, 5] was 300 ± 100 nM and the CC50 at 72 h ([2]; mock-infected Vero-E6 cells) was 2200 ± 1000 nM.

With `CC[C@@H](C(=O)[C@@H](C)[C@@H](O)[C@H](C)[C@@H]1O[C@@H]([C@@H](CC)C(=O)O)CC[C@@H]1C)[C@H]1O[C@]2(C=C[C@@H](O)[C@]3(CC[C@@](C)([C@H]4CC[C@](O)(CC)[C@H](C)O4)O3)O2)[C@H](C)C[C@@H]1C` [Salinomycin] the EC50 [1, 6] was 200 ± 100 nM and the CC50 at 72 h [2] was 13900 ± 300 nM.

In the case of Doxycycline hyclate, the AUC ([1]; 72 h) is reported as 143,99.

For Ivermectin, the AUC ([1]; 72 h) was 66,08.

With Pentosan polysulfate the AUC ([1]; 72 h) was 123,06.

For Teicoplanin, the AUC ([1]; 72 h) was 145,39.
